Assay [1] has as its system Enterococcus faecalis 2041. Briefly: MIC, standard agar-dilution assay. Type of assay: cell-based. The procedure: (§1) The formula I compounds have in vitro and in vivo activity against Gram-positive pathogenic bacteria. The MIC's were determined using a standard agar-dilution assays.
^c Formerly Streptococcus faecalis 2041

Assay [2] relates to Staphylococcus aureus NRRL X1.1. Briefly: MIC, standard agar-dilution assay. The class given is cell-based. On the procedure: as §1
Assay [3] relates to Haemophilus influenzae C.L. Briefly: MIC, standard agar-dilution assay. Type of assay: cell-based. On the procedure:
as §1

For assay [4], the system named is Haemophilus influenzae 76. Briefly: MIC, standard agar-dilution assay. Type of assay: cell-based. On the procedure: as §1
Assay [5] concerns Streptococcus pyogenes C203. Briefly: MIC, standard agar-dilution assay. Type of assay: cell-based. The procedure:
as §1

The subject of assay [6] is Staphylococcus epidermidis 222. Briefly: MIC, standard agar-dilution assay. The class given is cell-based. On the procedure: as §1
Assay [7] has as its system Staphylococcus aureus X400. Briefly: MIC, standard agar-dilution assay. The class given is cell-based. On the procedure:
as §1

Assay [8] relates to Klebsiella pneumoniae X68. Briefly: MIC, standard agar-dilution assay. The class given is cell-based. On the procedure: as §1
For assay [9], the system named is Staphylococcus epidermidis EPI270. Briefly: MIC, standard agar-dilution assay. The class given is cell-based. The procedure: as §1
In assay [10] the test system is Staphylococcus aureus V41. Briefly: MIC, standard agar-dilution assay. The class given is cell-based. On the procedure:
as §1

Assay [11] concerns Klebsiella pneumoniae KAE. Briefly: MIC, standard agar-dilution assay. Type of assay: cell-based. The procedure:
as §1

Assay [12] has as its system Klebsiella pneumoniae X26. Briefly: MIC, standard agar-dilution assay. Type of assay: cell-based. The procedure:
as §1

The test system of assay [13] is Streptococcus pyogenes. Briefly: In vivo activity, experimentally infected mice (ED50). Conditions: Streptococcus pyogenes infection; doses administered subcutaneously to mice 1 and 4 hours postinfection.
The test system of assay [14] is Staphylococcus aureus. The assay is described as above. The note with it: Staphylococcus aureus infection; doses administered subcutaneously to mice 1 and 4 hours postinfection.
For assay [15], the system named is Staphylococcus aureus S13E. The class given is cell-based. The procedure: as §1
Assay [16] concerns Streptococcus pneumoniae Park 1. The class given is cell-based. On the procedure:
as §1

Assay [17] concerns Streptococcus pneumoniae. Briefly: In vivo activity, experimentally infected mice (ED50). Conditions: Streptococcus pneumoniae infection; doses administered subcutaneously to mice 1 and 4 hours postinfection.
The test system of assay [18] is Enterococcus faecium X66. Briefly: MIC, standard agar-dilution assay. Type of assay: cell-based. The procedure: as §1
^b Formerly Streptococcus faecium X66

For assay [19], the system named is Escherichia coli TEM. Briefly: MIC, standard agar-dilution assay. Type of assay: cell-based. On the procedure:
as §1

Assay [20] relates to Escherichia coli N10. Briefly: MIC, standard agar-dilution assay. The class given is cell-based. On the procedure: as §1
Assay [21] concerns Escherichia coli EC14. Briefly: MIC, standard agar-dilution assay. The class given is cell-based. On the procedure: as §1

≈ marks a conversion by molar mass, not a printed value.

Consider `CN[C@H](CC(C)C)C(=O)N[C@H]1C(=O)N[C@@H](CC(N)=O)C(=O)N[C@H]2C(=O)N[C@H]3C(=O)N[C@H](C(=O)N[C@H](C(=O)O)c4cc(O)cc(O)c4-c4cc3ccc4O)[C@H](O[C@H]3C[C@](C)(NCc4ccccc4)[C@@H](O)[C@H](C)O3)c3ccc(cc3)Oc3cc2cc(c3O[C@@H]2O[C@H](CO)[C@@H](O)[C@H](O)[C@H]2O[C@H]2C[C@](C)(NCc3ccccc3)[C@@H](O)[C@H](C)O2)Oc2ccc(cc2Cl)[C@H]1O` [Compound 11], for which the MIC in assay [1] is 1 µg/mL (≈ 0.575 µM); in assay [2], “.25 µg/mL”; in assay [3] it was over 128 µg/mL; in assay [4] it was over 128 µg/mL; in [5], “.25 µg/mL”; in assay [6] it was “.5 µg/mL”. For the same compound, the MIC result was “.5 µg/mL” in assay [7]; over 128 µg/mL in [8]; 1 µg/mL (≈ 0.575 µM) in assay [9]; “.5 µg/mL” in [10]; over 128 µg/mL in assay [11]; over 128 µg/mL in assay [12]. The MIC result in assay [15], in [16] and in [18] was “.25 µg/mL” each time. The ED50 was 0.34 mg/kg/2 in assay [13], 0.58 mg/kg/2 in assay [14] and 0.37 mg/kg/2 in assay [17].

For `CC(C)C[C@H](C(=O)N[C@H]1C(=O)N[C@@H](CC(N)=O)C(=O)N[C@H]2C(=O)N[C@H]3C(=O)N[C@H](C(=O)N[C@H](C(=O)O)c4cc(O)cc(O)c4-c4cc3ccc4O)[C@H](O[C@H]3C[C@](C)(NCc4ccccc4)[C@@H](O)[C@H](C)O3)c3ccc(cc3)Oc3cc2cc(c3O[C@@H]2O[C@H](CO)[C@@H](O)[C@H](O)[C@H]2O[C@H]2C[C@](C)(NCc3ccccc3)[C@@H](O)[C@H](C)O2)Oc2ccc(cc2Cl)[C@H]1O)N(C)Cc1ccccc1` [Compound 12], the MIC is 8 µg/mL (≈ 4.38 µM) in assay [1]; 8 µg/mL (≈ 4.38 µM) in assay [2]; over 128 µg/mL in [3]; over 128 µg/mL in [4]; 2 µg/mL (≈ 1.09 µM) in assay [5]; 8 µg/mL (≈ 4.38 µM) in assay [6]. Further, the MIC in [7] is 8 µg/mL (≈ 4.38 µM); in assay [8], over 128 µg/mL; in [9], 8 µg/mL (≈ 4.38 µM); in assay [10] it was 8 µg/mL (≈ 4.38 µM); in [11], over 128 µg/mL; in assay [12], over 128 µg/mL. The MIC stood at 4 µg/mL (≈ 2.19 µM) in [15], 2 µg/mL (≈ 1.09 µM) in assay [16] and 4 µg/mL (≈ 2.19 µM) in assay [18].

As for `CCCCCN(C)[C@H](CC(C)C)C(=O)N[C@H]1C(=O)N[C@@H](CC(N)=O)C(=O)N[C@H]2C(=O)N[C@H]3C(=O)N[C@H](C(=O)N[C@H](C(=O)O)c4cc(O)cc(O)c4-c4cc3ccc4O)[C@H](O[C@H]3C[C@](C)(N)[C@@H](O)[C@H](C)O3)c3ccc(c(Cl)c3)Oc3cc2cc(c3O[C@@H]2O[C@H](CO)[C@@H](O)[C@H](O)[C@H]2O[C@H]2C[C@](C)(N)[C@@H](O)[C@H](C)O2)Oc2ccc(cc2Cl)[C@H]1O` [Compound 35], the MIC entry was “.5 µg/mL” in assay [1]; “.5 µg/mL” in [2]; over 128 µg/mL in assay [19]; over 128 µg/mL in assay [3]; over 128 µg/mL in [4]; “.25 µg/mL” in assay [5]. For the same compound, the MIC entry in assay [6] is “.5 µg/mL”; in assay [7], “.5 µg/mL”; in [8], over 128 µg/mL; in assay [9], 1 µg/mL (≈ 0.601 µM); in assay [10], “.25 µg/mL”; in [20], over 128 µg/mL. In addition, the MIC in assay [21] is over 128 µg/mL; in assay [11], over 128 µg/mL; in [12], over 128 µg/mL; in assay [15], “.25 µg/mL”; in assay [16], “.25 µg/mL”; in [18], “.5 µg/mL”.

Consider `CNC(CC(C)C)C(=O)NC1C(=O)NC(CC(N)=O)C(=O)NC2C(=O)NC3C(=O)NC(C(=O)NC(C(=O)O)c4cc(O)cc(O)c4-c4cc3ccc4O)C(OC3CC(C)(NCc4ccc(F)cc4)C(O)C(C)O3)c3ccc(c(Cl)c3)Oc3cc2cc(c3OC2OC(CO)C(O)C(O)C2OC2CC(C)(N)C(O)C(C)O2)Oc2ccc(cc2Cl)C1O` (stereo not drawn) [Compound 66], for which the MIC in [1] is 1 µg/mL (≈ 0.588 µM); in assay [2] it was “.5 µg/mL”; in assay [3], over 128 µg/mL; in assay [4], over 128 µg/mL; in assay [5] it was “.5 µg/mL”; in assay [6], 1 µg/mL (≈ 0.588 µM). Moreover, the MIC in [7] is 1 µg/mL (≈ 0.588 µM); in assay [8], over 128 µg/mL; in assay [9], 2 µg/mL (≈ 1.18 µM); in assay [10], 1 µg/mL (≈ 0.588 µM); in assay [20], over 128 µg/mL; in assay [21] it was over 128 µg/mL. In addition, the MIC in [11] is over 128 µg/mL; in assay [12] it was over 128 µg/mL; in assay [15], 1 µg/mL (≈ 0.588 µM); in [16], “.25 µg/mL”; in assay [18] it was 1 µg/mL (≈ 0.588 µM). Moreover, the ED50 in assay [13] amounted to 0.18 mg/kg/2; in [14], 0.37 mg/kg/2; in assay [17], 0.22 mg/kg/2.

Turning to `CNC(CC(C)C)C(=O)NC1C(=O)NC(CC(N)=O)C(=O)NC2C(=O)NC3C(=O)NC(C(=O)NC(C(=O)O)c4cc(O)cc(O)c4-c4cc3ccc4O)C(OC3CC(C)(N)C(O)C(C)O3)c3ccc(c(Cl)c3)Oc3cc2cc(c3OC2OC(CO)C(O)C(O)C2OC2CC(C)(NCc3ccc(F)cc3)C(O)C(C)O2)Oc2ccc(cc2Cl)C1O` (stereo not drawn) [Compound 67], the MIC result was “.5 µg/mL” in assay [1]; “.5 µg/mL” in [2]; over 128 µg/mL in [3]; over 128 µg/mL in assay [4]; “.25 µg/mL” in assay [5]; “.5 µg/mL” in assay [6]. Besides, the MIC in [7] is 1 µg/mL (≈ 0.588 µM); in assay [8], over 128 µg/mL; in assay [9], 2 µg/mL (≈ 1.18 µM); in [10], 1 µg/mL (≈ 0.588 µM); in [20], over 128 µg/mL; in assay [21] it was over 128 µg/mL. Also, the MIC in assay [11] is over 128 µg/mL; in [12], over 128 µg/mL; in assay [15], 1 µg/mL (≈ 0.588 µM); in assay [16], “.125 µg/mL”; in [18], “.5 µg/mL”. Further, the ED50 in assay [13] was under 0.12 mg/kg/2; in assay [14], 0.33 mg/kg/2; in [17], under 0.12 mg/kg/2.

With `CCCCCNC1(C)CC(OC2c3ccc(cc3)Oc3cc4cc(c3OC3OC(CO)C(O)C(O)C3O)Oc3ccc(cc3Cl)C(O)C(NC(=O)C(CC(C)C)NC)C(=O)NC(CC(N)=O)C(=O)NC4C(=O)NC3C(=O)NC2C(=O)NC(C(=O)O)c2cc(O)cc(O)c2-c2cc3ccc2O)OC(C)C1O` (stereo not drawn) [Compound 71], the MIC is 8 µg/mL (≈ 5.39 µM) in [1]; 2 µg/mL (≈ 1.35 µM) in [2]; over 128 µg/mL in [19]; over 128 µg/mL in assay [3]; over 128 µg/mL in [4]; 2 µg/mL (≈ 1.35 µM) in assay [5]. Further, the MIC in assay [6] was 4 µg/mL (≈ 2.69 µM); in [7], 4 µg/mL (≈ 2.69 µM); in assay [8], over 128 µg/mL; in [9], 1 µg/mL (≈ 0.673 µM); in assay [10], 2 µg/mL (≈ 1.35 µM); in [20] it was over 128 µg/mL. Moreover, the MIC in [21] was over 128 µg/mL; in assay [11], over 128 µg/mL; in [12], over 128 µg/mL; in assay [15], 2 µg/mL (≈ 1.35 µM); in [16] it was 2 µg/mL (≈ 1.35 µM); in [18] it was 8 µg/mL (≈ 5.39 µM).

For the compound `CNC(CC(C)C)C(=O)NC1C(=O)NC(CC(N)=O)C(=O)NC2C(=O)NC3C(=O)NC(C(=O)NC(C(=O)O)c4cc(O)cc(O)c4-c4cc3ccc4O)C(OC3CC(C)(NCc4ccccc4)C(O)C(C)O3)c3ccc(c(Cl)c3)Oc3cc2cc(c3O)Oc2ccc(cc2Cl)C1O` (stereo not drawn) [Compound 79], the MIC in [1] was 1 µg/mL (≈ 0.726 µM); in [2], “.25 µg/mL”; in assay [19] it was over 128 µg/mL; in assay [3] it was over 128 µg/mL; in assay [4] it was over 128 µg/mL; in assay [5], “.25 µg/mL”. The MIC result is “.5 µg/mL” in assay [6]; “.5 µg/mL” in [7]; over 128 µg/mL in [8]; “.25 µg/mL” in assay [10]; over 128 µg/mL in [20]; over 128 µg/mL in [21]. In addition, the MIC in assay [11] was over 128 µg/mL; in assay [12], over 128 µg/mL; in [15], “.25 µg/mL”; in [16], “.25 µg/mL”; in assay [18], 1 µg/mL (≈ 0.726 µM). The ED50 in assay [13] is reported as 0.71 mg/kg/2; in assay [14] it was over 1.0 mg/kg/2; in [17] it was 0.71 mg/kg/2.
